Laboratory results: patent US20260008793A1, “IONIZABLE CATIONIC LIPIDS INCORPORATING SILICON” (ALDEXCHEM KFT., priority 2022, published 2026)

Assays:
[1] = LNP size, PDI and zeta potential by Dynamic Light Scattering (Method A); type: physicochemical; conditions: LNP formulated by Method A; for Zeta potential (mV): 1xPBS pH 7.4; for PDI / Size (nm): DLS; for Size (nm): Luciferase-mRNA loaded
Outline: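 Dynamic light scattering gave particle size, PDI and zeta potential of the LNPs. These were made by microfluidic mixing, 3:1 aqueous to ethanol, of mRNA in 10 mM citrate pH 4.0 with a lipid master mix carrying the ionizable lipid, then dialysed through 100 kDa MWCO tubing.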

[2] = Encapsulation efficiency, RiboGreen RNA assay (Method A); type: physicochemical; conditions: LNP formulated by Method A
Outline: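 mRNA-LNPs (Method A formulation) diluted in TE buffer pH 7.4/7.5 and measured in duplicate with and without Triton lysis (37° C., 10 min). RiboGreen fluorescence read at ex 480/em 525. mRNA quantified against a standard curve.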

SMILES | Zeta potential (mV) [1] | PDI [1] | Size (nm) [1] | EE (%) [2]
CCCCCCCCCCSC(CCCC)C(=O)OCCCCCCN(CCCCO)CCCCCCOC(CCCCCCC)O[Si](C)(C)OCC(CCCCCC)CCCCCCCC (stereo not drawn) [Example 175, 15-heptyl-20-hexyl-7-(4-hydroxybutyl)-17,17-dimethyl-14,16,18-trioxa-7-aza-17-silaoctacosyl 2-(decylthio)hexanoate] | −11.78 mV | 0.068 | 161.2 nm | 97%
CCCCCCCCOC(CCCCCN(CCCCO)CCCCCCOC(=O)C(CCCCCCCC)SCCCCC)O[Si](C)(C)CCCCCCCC (stereo not drawn) [Example 177, 6-((6-((dimethyl(octyl)silyl)oxy)-6-(octyloxy)hexyl)(4-hydroxybutyl)amino)hexyl 2-(pentylthio)decanoate] | −14.50 mV | 0.100 | 166 nm | 98%
CCCCCCCCC(SCCCCC)C(=O)OCCCCCCN(CCCCO)CCCCCCOC(CCCCCCC)O[Si](C)(C)CCCCCCCC (stereo not drawn) [Example 178, 15-heptyl-7-(4-hydroxybutyl)-17,17-dimethyl-14,16-dioxa-7-aza-17-silapentacosyl 2-(pentylthio)decanoate] | −13.00 mV | 0.058 | 209.9 nm | 96%
CCCCCCCCOC(CCCCCN(CCCCO)CCCCCCOC(=O)C(CCCCCCCC)SCCCCC)O[Si](C)(C)OCCCCCCCC (stereo not drawn) [Example 179, 7-(4-hydroxybutyl)-15,15-dimethyl-13-(octyloxy)-14,16-dioxa-7-aza-15-silatetracosyl 2-(pentylthio)decanoate] | −10.65 mV | 0.038 | 189.1 nm | 94%
CCCCCCCCOC(CCCCCN(CCCCO)CCCCCCOC(=O)C(CCCCCCCC)SCCCCC)O[Si](C)(C)O[Si](C)(C)CCCCCCCC (stereo not drawn) [Example 181, 6-((4-hydroxybutyl)(6-(octyloxy)-6-((1,1,3,3-tetramethyl-3-octyldisiloxaneyl)oxy)hexyl)amino)hexyl 2-(pentylthio)decanoate] | −14.73 mV | 0.049 | 188.6 nm | 97%
CCCCCCCCC(SCCCCC)C(=O)OCCCCCCN(CCCCO)CCCCCCOC(CCCCCCC)O[Si](C)(C)O[Si](C)(C)CCCCCCCC (stereo not drawn) [Example 182, 15-heptyl-7-(4-hydroxybutyl)-17,17,19,19-tetramethyl-14,16,18-trioxa-7-aza-17,19-disilaheptacosyl 2-(pentylthio)decanoate] | −12.56 mV | 0.045 | 136.8 nm | 96%
CCCCCCCCOC(CCCCCN(CCCCO)CCCCCCOC(=O)C(CCCCCCCC)SCCCCC)O[Si](C)(C)O[Si](C)(C)OCCCCCCCC (stereo not drawn) [Example 183, 6-((4-hydroxybutyl)(6-(octyloxy)-6-((1,1,3,3-tetramethyl-3-(octyloxy)disiloxaneyl)oxy)hexyl)amino)hexyl 2-(pentylthio)decanoate] | −10.92 mV | 0.044 | 143.9 nm | 97%
CCCCCCCCO[Si](C)(C)O[Si](C)(C)OC(CCCCCCC)OCCCCCCN(CCCCO)CCCCCCOC(=O)C(CCCCCCCC)SCCCCC (stereo not drawn) [Example 184, 15-heptyl-7-(4-hydroxybutyl)-17,17,19,19-tetramethyl-14,16,18,20-tetraoxa-7-aza-17,19-disilaoctacosyl 2-(pentylthio)decanoate] | −14.83 mV | 0.146 | 237.5 nm | 92%
CCCCCCCCOC(CCCCCN(CCCCO)CCCCCCOC(=O)C(CCCCCCCC)SCCCCC)O[Si](C)(C)OCC(CCCCCC)CCCCCCCC (stereo not drawn) [Example 185, 18-hexyl-7-(4-hydroxybutyl)-15,15-dimethyl-13-(octyloxy)-14,16-dioxa-7-aza-15-silahexacosyl 2-(pentylthio)decanoate] | −16.4 mV | 0.04 | 213.6 nm | 97%
